From ChEMBL document CHEMBL5375955, “Discovery of New Fusobacterium nucleatum Inhibitors to Attenuate Migratory Capability of Colon Cancer Cells by the Drug Repositioning Strategy” (J Med Chem, 2023)
Values after ≈ are worked out from the molar mass of the structure shown. Active and inactive are the calls of the source. No cut-off for these calls is given here.

Test system: Fusobacterium nucleatum
Experiment: Antibacterial activity against Fusobacterium nucleatum ATCC 23726 assessed as bacterial growth inhibition incubated for 48 hrs by broth dilution susceptibility test
Assay type: functional
Conditions: not given

SMILES | MIC50 [µg/mL] | MIC90 [µg/mL]
O=C(CCc1ccc([N+](=O)[O-])cc1)Nc1ccon1 | > 64 | –
CC(C)(C)c1ccc(C(O)CCCN2CCC(C(O)(c3ccccc3)c3ccccc3)CC2)cc1 (configuration not stated) [TERFENADINE] | 16 (≈ 33.9 µM) | –
O=C1NCCN1CCN1CCC(c2cn(-c3ccc(F)cc3)c3ccc(Cl)cc23)CC1 [SERTINDOLE] | 16 (≈ 36.3 µM) | –
O=C(Nc1ccc([N+](=O)[O-])c(Cl)c1)c1ccc([N+](=O)[O-])cc1F | > 64 | –
O=C(NCc1ccccc1C(F)(F)F)c1ccc(C(F)(F)F)cc1[N+](=O)[O-] | > 64 | –
O=[N+]([O-])c1ccc(COc2ccc([N+](=O)[O-])c(Br)c2)o1 | 2 (≈ 5.83 µM) | 2 (≈ 5.83 µM)
CS(=O)(=O)c1ccc(C(=O)C2C(=O)CCCC2=O)c(Cl)c1 [SULCOTRIONE] | > 64 | –
CN(N=O)C(=O)N[C@@H](C=O)[C@@H](O)[C@H](O)[C@H](O)CO [STREPTOZOCIN] | 0.125 (≈ 0.471 µM) | –
OC1(c2ccc(Cl)c(C(F)(F)F)c2)CCN(CCCC(c2ccc(F)cc2)c2ccc(F)cc2)CC1 [PENFLURIDOL] | 8 (≈ 15.3 µM) | –
NC(=O)c1ccc(NC(=O)c2ccc(C(F)(F)F)cc2)cc1 | > 64 | –
O=C(Cn1cnc(=O)c2ccc(Cl)cc21)Nc1ccc([N+](=O)[O-])cc1Cl | 64 (≈ 163 µM) | –
CC1CS(=O)(=O)CCN1/N=C/c1ccc([N+](=O)[O-])o1 (configuration not stated) [NIFURTIMOX] | 16 (≈ 55.7 µM) | –
Cc1ccc(OC(=O)c2ccc(C(F)(F)F)cc2[N+](=O)[O-])c(C(N)=O)c1 | 64 (≈ 174 µM) | –
COC(=O)OCc1ccc(NC(=O)c2ccc(C(F)(F)F)cc2[N+](=O)[O-])cc1 | > 64 | –
Cc1cc(NC(=O)c2ccc(C(F)(F)F)cc2[N+](=O)[O-])on1 | > 64 | –
O=C(Nc1ccon1)c1ccc([N+](=O)[O-])cc1I | > 64 | –
O=C(Nc1ccon1)c1ccc([N+](=O)[O-])c(Br)c1 | > 64 | –

Test system: MC-38
Experiment: Antiproliferative activity against mouse MC-38 cells assessed as inhibition of cell growth incubated for 48 hrs by CCK-8 assay
Assay type: functional, cell-based
Conditions: MC-38, 48 h

SMILES | IC50 [µM]
O=[N+]([O-])c1ccc(COc2ccc([N+](=O)[O-])c(Br)c2)o1 | 26

Test system: HCT-116
Experiment: Antiproliferative activity against human HCT-116 cells assessed as inhibition of cell growth incubated for 48 hrs by CCK-8 assay
Assay type: functional, cell-based
Conditions: HCT-116, 48 h

SMILES | IC50 [µM]
O=[N+]([O-])c1ccc(COc2ccc([N+](=O)[O-])c(Br)c2)o1 | 62

Test system: not listed separately
Experiment: Cytotoxicity against HUVEC cells assessed as inhibition of cell growth incubated for 48 hrs by CCK-8 assay
Assay type: toxicity, cell-based
Conditions: human

SMILES | IC50 at 48 h [µM]
O=[N+]([O-])c1ccc(COc2ccc([N+](=O)[O-])c(Br)c2)o1 | 16

Test system: not listed separately
Experiment: Cytotoxicity against human L02 cells assessed as inhibition of cell growth incubated for 48 hrs by CCK-8 assay
Assay type: toxicity, cell-based
Conditions: not given

SMILES | IC50 at 48 h [µM]
O=[N+]([O-])c1ccc(COc2ccc([N+](=O)[O-])c(Br)c2)o1 | 60

Test system: Fusobacterium nucleatum
Experiment: Antibacterial activity against Fusobacterium nucleatum ATCC 23726 assessed as bacterial growth inhibition at 4 ug/ml incubated for 72 hrs by turbidimeter analysis
Assay type: functional, organism-based
Conditions: dose 4.0 µg/ml

SMILES | Activity
O=[N+]([O-])c1ccc(COc2ccc([N+](=O)[O-])c(Br)c2)o1 | Active

Test system: Fusobacterium nucleatum
Experiment: Antibacterial activity against Fusobacterium nucleatum ATCC 23726 assessed as bacterial growth inhibition incubated for 72 hrs by turbidimeter analysis
Assay type: functional, organism-based
Conditions: not given

SMILES | Activity
O=[N+]([O-])c1ccc(COc2ccc([N+](=O)[O-])c(Br)c2)o1 | Dose-Dependent Effect

Test system: Fusobacterium nucleatum
Experiment: Antibacterial activity against Fusobacterium nucleatum ATCC 23726 assessed as bacterial growth inhibition at 8 ug/ml incubated for 72 hrs by turbidimeter analysis relative to control
Assay type: functional
Parameters: scale not given: the % may be the effect or the level left
Conditions: dose 8 µg/ml

SMILES | Activity [%]
O=[N+]([O-])c1ccc(COc2ccc([N+](=O)[O-])c(Br)c2)o1 | ~100

Test system: Fusobacterium nucleatum
Experiment: Antibiofilm activity against Fusobacterium nucleatum ATCC 23726 assessed as inhibition of biofilm formation incubated for 48 hrs by crystal violet staining based assay
Assay type: functional, organism-based
Conditions: dose 0.5-16 µg/ml

SMILES | inhibition
O=[N+]([O-])c1ccc(COc2ccc([N+](=O)[O-])c(Br)c2)o1 | Dose-Dependent Effect

Test system: Fusobacterium nucleatum
Experiment: Antibiofilm activity against Fusobacterium nucleatum ATCC 23726 assessed as inhibition of biofilm formation at 1 ug/ml incubated for 48 hrs by crystal violet staining based assay relative to control
Assay type: functional
Conditions: not given

SMILES | inhibition at 1 µg/mL [%]
O=[N+]([O-])c1ccc(COc2ccc([N+](=O)[O-])c(Br)c2)o1 | > 50

Test system: Escherichia coli
Experiment: Antibacterial activity against Escherichia coli […] assessed as bacterial growth inhibition incubated for 48 hrs by broth dilution susceptibility test
Assay type: functional
Conditions: not given

SMILES | MIC50 [µg/mL]
O=[N+]([O-])c1ccc(COc2ccc([N+](=O)[O-])c(Br)c2)o1 | 16 (≈ 46.6 µM)

Test system: Enterococcus faecalis
Experiment: Antibacterial activity against Enterococcus faecalis ATCC 29212 assessed as bacterial growth inhibition incubated for 48 hrs by broth dilution susceptibility test
Assay type: functional
Conditions: not given

SMILES | MIC50 [µg/mL]
O=[N+]([O-])c1ccc(COc2ccc([N+](=O)[O-])c(Br)c2)o1 | 64 (≈ 187 µM)

Test system: Staphylococcus aureus
Experiment: Antibacterial activity against Staphylococcus aureus ATCC 6538 assessed as bacterial growth inhibition incubated for 48 hrs by broth dilution susceptibility test
Assay type: functional
Conditions: not given

SMILES | MIC50 [µg/mL]
O=[N+]([O-])c1ccc(COc2ccc([N+](=O)[O-])c(Br)c2)o1 | 64 (≈ 187 µM)

Test system: Peptostreptococcus anaerobius
Experiment: Antibacterial activity against Peptostreptococcus anaerobius ATCC 27337 assessed as bacterial growth inhibition incubated for 48 hrs by broth dilution susceptibility test
Assay type: functional
Conditions: not given

SMILES | MIC50 [µg/mL]
O=[N+]([O-])c1ccc(COc2ccc([N+](=O)[O-])c(Br)c2)o1 | 32 (≈ 93.3 µM)

Test system: Akkermansia muciniphila
Experiment: Antibacterial activity against Akkermansia muciniphila ATCC BAA-835 assessed as bacterial growth inhibition incubated for 48 hrs by broth dilution susceptibility test
Assay type: functional
Conditions: not given

SMILES | MIC50 [µg/mL]
O=[N+]([O-])c1ccc(COc2ccc([N+](=O)[O-])c(Br)c2)o1 | > 64

Test system: Salmonella enterica subsp. enterica serovar Paratyphi B
Experiment: Antibacterial activity against Salmonella paratyphi B ATCC CMCC50094 assessed as bacterial growth inhibition incubated for 48 hrs by broth dilution susceptibility test
Assay type: functional
Conditions: not given

SMILES | MIC50 [µg/mL]
O=[N+]([O-])c1ccc(COc2ccc([N+](=O)[O-])c(Br)c2)o1 | > 64

Test system: Shigella flexneri
Experiment: Antibacterial activity against Shigella flexneri ATCC 12022 assessed as bacterial growth inhibition incubated for 48 hrs by broth dilution susceptibility test
Assay type: functional
Conditions: not given

SMILES | MIC50 [µg/mL]
O=[N+]([O-])c1ccc(COc2ccc([N+](=O)[O-])c(Br)c2)o1 | > 64

Test system: Lactobacillus acidophilus
Experiment: Antibacterial activity against Lactobacillus acidophilus ATCC CGMCC 1.577 assessed as bacterial growth inhibition incubated for 48 hrs by broth dilution susceptibility test
Assay type: functional
Conditions: not given

SMILES | MIC50 [µg/mL]
O=[N+]([O-])c1ccc(COc2ccc([N+](=O)[O-])c(Br)c2)o1 | 64 (≈ 187 µM)

Test system: Fusobacterium nucleatum
Experiment: Antibacterial activity against Fusobacterium nucleatum ATCC 23726 assessed as downregulation of NTR gene expression incubated for 48 hrs by RT-qPCR analysis
Assay type: functional, organism-based
Conditions: not given

SMILES | Activity
O=[N+]([O-])c1ccc(COc2ccc([N+](=O)[O-])c(Br)c2)o1 | Dose-Dependent Effect

Test system: Fusobacterium nucleatum
Experiment: Antibiofilm activity against Fusobacterium nucleatum ATCC 23726 assessed as downregulation of tnaA gene expression measured after 48 hrs by RT-qPCR analysis
Assay type: functional, organism-based
Conditions: not given

SMILES | Activity
O=[N+]([O-])c1ccc(COc2ccc([N+](=O)[O-])c(Br)c2)o1 | Dose-Dependent Effect

Test system: L02
Experiment: Downregulation of HPPD gene expression in human L02 cells at 10 to 50 uM incubated for 48 hrs by RT-qPCR analysis
Assay type: functional, cell-based
Conditions: dose 10-50 µM

SMILES | Activity
O=[N+]([O-])c1ccc(COc2ccc([N+](=O)[O-])c(Br)c2)o1 | Active

Test system: not listed separately
Experiment: Acute toxicity in ICR mouse assessed as death rate at 1250 to 2592 mg/kg, po measured after 7 days
Assay type: organism-based
Conditions: in vivo, dose 1250-2592 mg/kg, time 7 day, read-out: Activity

SMILES | mortality at 168 h [%]
O=[N+]([O-])c1ccc(COc2ccc([N+](=O)[O-])c(Br)c2)o1 | 0

Test system: not listed separately
Experiment: Acute toxicity in po dosed ICR mouse assessed as animal death measured after 7 days
Assay type: organism-based
Conditions: in vivo, time 7 day

SMILES | LD50 at 168 h [mg/kg]
O=[N+]([O-])c1ccc(COc2ccc([N+](=O)[O-])c(Br)c2)o1 | > 2590

Test system: not listed separately
Experiment: Acute toxicity in po dosed ICR mouse assessed as heart damage at 1500 mg/kg, po measured after 7 days by H and E staining based analysis
Assay type: organism-based
Conditions: in vivo, 168 h, time 7 day

SMILES | Activity
O=[N+]([O-])c1ccc(COc2ccc([N+](=O)[O-])c(Br)c2)o1 | Non-Toxic

Test system: not listed separately
Experiment: Acute toxicity in po dosed ICR mouse assessed as liver damage at 1500 mg/kg, po measured after 7 days by H and E staining based analysis
Assay type: organism-based
Conditions: in vivo, 168 h, time 7 day

SMILES | Activity
O=[N+]([O-])c1ccc(COc2ccc([N+](=O)[O-])c(Br)c2)o1 | Non-Toxic

Test system: not listed separately
Experiment: Acute toxicity in po dosed ICR mouse assessed as spleen damage at 1500 mg/kg, po measured after 7 days by H and E staining based analysis
Assay type: organism-based
Conditions: in vivo, 168 h, time 7 day

SMILES | Activity
O=[N+]([O-])c1ccc(COc2ccc([N+](=O)[O-])c(Br)c2)o1 | Non-Toxic

Test system: not listed separately
Experiment: Acute toxicity in po dosed ICR mouse assessed as lung damage at 1500 mg/kg, po measured after 7 days by H and E staining based analysis
Assay type: organism-based
Conditions: in vivo, 168 h, time 7 day

SMILES | Activity
O=[N+]([O-])c1ccc(COc2ccc([N+](=O)[O-])c(Br)c2)o1 | Non-Toxic

Test system: not listed separately
Experiment: Acute toxicity in po dosed ICR mouse assessed as kidney damage at 1500 mg/kg, po measured after 7 days by H and E staining based analysis
Assay type: organism-based
Conditions: in vivo, 168 h, time 7 day

SMILES | Activity
O=[N+]([O-])c1ccc(COc2ccc([N+](=O)[O-])c(Br)c2)o1 | Non-Toxic

Test system: not listed separately
Experiment: Metabolic stability in mouse liver microsomes assessed as half life at 1 uM incubated for 45 mins in presence of NADPH by LC-MS/MS analysis
Assay type: ADME, Microsome
Conditions: not given

SMILES | half-life at 1 µM [min]
O=[N+]([O-])c1ccc(COc2ccc([N+](=O)[O-])c(Br)c2)o1 | 21.3

Test system: not listed separately
Experiment: Drug metabolism assessed as NTR(unknown origin)-mediated metabolism at 10 mM incubated for 2 hrs in presence of NADH by LC-MS analysis
Assay type: ADME
Conditions: bacteria, 10000 µM

SMILES | Drug metabolism
O=[N+]([O-])c1ccc(COc2ccc([N+](=O)[O-])c(Br)c2)o1 | Metabolite_Detected
